# From US20240269139A1, “COMPOUNDS FOR TARGETED PROTEIN DEGRADATION OF KINASES” (DANA-FARBER CANCER INSTITUTE, INC., priority 2020, published 2024)
# Where two headings read alike, the source gives them in different places.
# Key:
# Format in all cases: cell-based
# [1] = target: protein kinases (human kinome) (Homo sapiens, UniProt P54819); settings: AK2 (P54819)
# [2] = target: protein kinases (human kinome) (Homo sapiens, UniProt Q15131); settings: for logFC: CDK10 (Q15131-1)
# [3] = target: protein kinases (human kinome) (Homo sapiens, UniProt Q7KZI7)
# protein kinases (human kinome) (Homo sapiens, UniProt Q7KZI7), sequence (Q7KZI7 whole entry): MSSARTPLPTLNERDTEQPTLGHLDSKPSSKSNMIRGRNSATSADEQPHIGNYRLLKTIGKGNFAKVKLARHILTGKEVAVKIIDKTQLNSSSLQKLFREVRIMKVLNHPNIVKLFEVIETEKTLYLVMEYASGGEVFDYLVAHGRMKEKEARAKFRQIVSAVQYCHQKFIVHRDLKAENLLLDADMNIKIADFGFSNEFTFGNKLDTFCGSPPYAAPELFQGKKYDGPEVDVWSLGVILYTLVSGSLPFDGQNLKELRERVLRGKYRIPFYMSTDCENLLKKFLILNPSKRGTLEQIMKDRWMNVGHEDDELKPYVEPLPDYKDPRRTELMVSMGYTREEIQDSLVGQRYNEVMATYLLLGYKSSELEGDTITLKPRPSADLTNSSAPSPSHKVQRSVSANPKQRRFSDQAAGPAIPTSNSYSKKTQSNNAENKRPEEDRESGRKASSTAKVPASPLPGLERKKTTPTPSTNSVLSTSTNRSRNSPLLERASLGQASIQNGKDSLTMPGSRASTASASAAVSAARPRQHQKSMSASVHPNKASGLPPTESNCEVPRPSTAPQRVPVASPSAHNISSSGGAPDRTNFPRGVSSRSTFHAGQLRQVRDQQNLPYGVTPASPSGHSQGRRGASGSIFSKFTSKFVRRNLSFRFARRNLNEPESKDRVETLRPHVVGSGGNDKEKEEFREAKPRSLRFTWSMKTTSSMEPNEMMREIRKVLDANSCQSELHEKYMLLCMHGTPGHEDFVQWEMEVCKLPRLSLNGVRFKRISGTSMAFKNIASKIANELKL
# [4] = target: protein kinases (human kinome) (Homo sapiens, UniProt P06241); settings: for logFC: FYN (P06241-1), direction down
# protein kinases (human kinome) (Homo sapiens, UniProt P06241), sequence (P06241 whole entry): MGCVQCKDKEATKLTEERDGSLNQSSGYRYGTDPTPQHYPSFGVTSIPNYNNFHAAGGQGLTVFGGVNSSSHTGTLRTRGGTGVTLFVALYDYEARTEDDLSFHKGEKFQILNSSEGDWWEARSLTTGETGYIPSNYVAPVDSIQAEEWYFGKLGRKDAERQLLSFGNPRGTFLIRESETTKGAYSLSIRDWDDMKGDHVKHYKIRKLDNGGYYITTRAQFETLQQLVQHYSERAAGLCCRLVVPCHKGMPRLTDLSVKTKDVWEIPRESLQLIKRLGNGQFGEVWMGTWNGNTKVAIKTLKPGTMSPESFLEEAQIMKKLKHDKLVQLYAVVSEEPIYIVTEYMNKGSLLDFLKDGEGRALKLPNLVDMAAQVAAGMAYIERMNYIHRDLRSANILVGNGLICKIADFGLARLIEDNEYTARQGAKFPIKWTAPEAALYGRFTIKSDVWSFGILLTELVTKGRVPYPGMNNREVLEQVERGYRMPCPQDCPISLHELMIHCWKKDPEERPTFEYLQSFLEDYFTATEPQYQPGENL
# [5] = target: T1, protein kinases (human kinome) (Homo sapiens, UniProt O15197); settings: for logFC: EPHB6 (O15197-1)
# T1 sequence (O15197 32-1021): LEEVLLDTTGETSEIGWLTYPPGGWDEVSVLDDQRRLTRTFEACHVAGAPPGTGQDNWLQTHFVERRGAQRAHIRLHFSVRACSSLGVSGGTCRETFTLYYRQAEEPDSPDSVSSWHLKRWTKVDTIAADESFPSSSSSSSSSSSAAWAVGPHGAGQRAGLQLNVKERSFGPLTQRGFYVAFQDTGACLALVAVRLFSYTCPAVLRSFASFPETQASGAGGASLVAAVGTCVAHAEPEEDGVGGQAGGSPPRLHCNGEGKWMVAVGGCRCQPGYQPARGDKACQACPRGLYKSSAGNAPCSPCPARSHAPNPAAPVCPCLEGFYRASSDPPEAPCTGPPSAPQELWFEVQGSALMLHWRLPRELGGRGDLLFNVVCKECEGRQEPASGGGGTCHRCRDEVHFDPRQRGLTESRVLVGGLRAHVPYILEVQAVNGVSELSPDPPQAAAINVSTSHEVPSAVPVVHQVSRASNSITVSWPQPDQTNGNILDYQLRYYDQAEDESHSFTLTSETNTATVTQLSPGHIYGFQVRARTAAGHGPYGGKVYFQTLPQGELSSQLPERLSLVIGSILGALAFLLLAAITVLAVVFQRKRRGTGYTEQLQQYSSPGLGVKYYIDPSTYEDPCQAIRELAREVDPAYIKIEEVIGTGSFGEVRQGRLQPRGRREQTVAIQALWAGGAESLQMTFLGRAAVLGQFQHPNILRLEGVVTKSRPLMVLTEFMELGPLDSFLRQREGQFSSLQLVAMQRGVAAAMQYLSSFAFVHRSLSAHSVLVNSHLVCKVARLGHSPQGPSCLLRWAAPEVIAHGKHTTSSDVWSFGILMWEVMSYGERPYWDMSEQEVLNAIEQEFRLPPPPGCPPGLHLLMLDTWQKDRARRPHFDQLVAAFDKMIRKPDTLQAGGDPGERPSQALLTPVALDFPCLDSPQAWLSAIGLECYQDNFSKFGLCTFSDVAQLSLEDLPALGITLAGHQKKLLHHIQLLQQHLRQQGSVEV
# [6] = target: protein kinases (human kinome) (Homo sapiens, UniProt O94804); settings: STK10 (O94804)
# protein kinases (human kinome) (Homo sapiens, UniProt O94804), sequence (O94804 whole entry): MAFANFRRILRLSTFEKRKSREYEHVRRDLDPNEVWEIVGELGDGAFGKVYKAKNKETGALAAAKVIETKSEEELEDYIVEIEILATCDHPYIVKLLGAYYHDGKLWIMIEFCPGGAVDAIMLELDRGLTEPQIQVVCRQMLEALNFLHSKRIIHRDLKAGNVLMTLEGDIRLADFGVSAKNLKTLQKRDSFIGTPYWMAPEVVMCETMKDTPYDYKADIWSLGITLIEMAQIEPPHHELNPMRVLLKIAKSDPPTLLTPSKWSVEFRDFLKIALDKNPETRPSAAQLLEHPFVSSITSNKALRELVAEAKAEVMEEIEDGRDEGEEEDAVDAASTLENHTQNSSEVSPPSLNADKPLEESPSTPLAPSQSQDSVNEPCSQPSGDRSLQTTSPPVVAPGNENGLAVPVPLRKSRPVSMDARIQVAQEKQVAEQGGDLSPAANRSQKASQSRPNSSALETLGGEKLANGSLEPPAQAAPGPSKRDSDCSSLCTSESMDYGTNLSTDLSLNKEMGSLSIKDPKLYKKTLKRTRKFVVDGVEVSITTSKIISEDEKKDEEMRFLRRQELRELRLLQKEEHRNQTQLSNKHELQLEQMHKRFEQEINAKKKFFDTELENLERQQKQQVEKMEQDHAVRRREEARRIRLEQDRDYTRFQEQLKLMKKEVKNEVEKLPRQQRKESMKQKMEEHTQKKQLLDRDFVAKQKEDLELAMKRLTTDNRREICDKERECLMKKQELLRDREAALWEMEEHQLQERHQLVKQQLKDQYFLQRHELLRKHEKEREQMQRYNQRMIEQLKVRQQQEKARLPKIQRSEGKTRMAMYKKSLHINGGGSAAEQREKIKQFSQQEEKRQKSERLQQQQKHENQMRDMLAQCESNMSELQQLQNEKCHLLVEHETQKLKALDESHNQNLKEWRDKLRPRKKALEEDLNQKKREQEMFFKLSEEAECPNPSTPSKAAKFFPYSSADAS
# [7] = Accession P06241-1, experiment wp105
# [8] = Accession P06241-1, experiment wp107
# [9] = experiment wp103, direction down
# protein kinases (human kinome) (Homo sapiens, UniProt Q15131), sequence (Q15131 whole entry): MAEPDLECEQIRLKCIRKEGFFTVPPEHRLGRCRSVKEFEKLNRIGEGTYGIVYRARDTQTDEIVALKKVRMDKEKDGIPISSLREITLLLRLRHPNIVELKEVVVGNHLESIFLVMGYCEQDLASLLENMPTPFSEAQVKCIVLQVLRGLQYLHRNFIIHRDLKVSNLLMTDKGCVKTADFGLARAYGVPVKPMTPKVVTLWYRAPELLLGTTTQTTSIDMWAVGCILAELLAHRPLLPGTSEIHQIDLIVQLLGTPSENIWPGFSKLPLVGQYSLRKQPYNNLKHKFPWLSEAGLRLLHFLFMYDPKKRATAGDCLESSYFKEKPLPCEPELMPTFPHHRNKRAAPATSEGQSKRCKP
structure (smiles),measurement,setting,value
CC(=O)c1c(C)c2cnc(Nc3ccc(N4CCN(CCOCCOCCOCCNC(=O)COc5cccc6c5C(=O)N(C5CCC(=O)NC5=O)C6=O)CC4)cn3)nc2n(C2CCCC2)c1=O (stereo not drawn) [BSJ.03.123],logFC,[1]; experiment wp084,−0.395
CN(C)C(=O)c1cc2cnc(Nc3ccc(N4CCN(CCCCNC(=O)COc5cccc6c5C(=O)N(C5CCC(=O)NC5=O)C6=O)CC4)cn3)nc2n1C1CCCC1 (stereo not drawn) [BSJ.04.132],logFC,[1]; experiment wp084,−0.3323
O=C(COc1cccc2c1C(=O)N(C1CCC(=O)NC1=O)C2=O)NCCCCCCCN1CCc2cc(Nc3ncc(C4CC4)c(NCCCNC(=O)C4CCC4)n3)ccc2C1 (stereo not drawn) [BSJ.04.178],logFC,[2]; experiment wp134,−0.6546
same,logFC of CDK10 (Q15131-1),[2]; experiment wp134,−0.6546
same,logFC,"[3]; MARK2 (Q7KZI7-1), experiment wp134, direction down",−0.9686
same,logFC,"[3]; MARK2 Q7KZI7-1, experiment wp134",−0.9686
Cc1ncsc1-c1ccc([C@H](C)NC(=O)[C@@H]2C[C@@H](O)CN2C(=O)[C@@H](NC(=O)CCCCCN2CCc3cc(Nc4ncc(C5CC5)c(NCCCNC(=O)C5CCC5)n4)ccc3C2)C(C)(C)C)cc1 [BSJ.05.026],logFC,"[3]; MARK2 (Q7KZI7-1), experiment wp195, direction down",−1.239
same,logFC,"[3]; MARK2 Q7KZI7-1, experiment wp195",−1.239
"Cc1ccc(NC(=O)c2cccc(C(F)(F)F)c2)cc1N1Cc2cnc(Nc3ccc(N4CCN(Cc5cn(CCCCCOc6cccc7c6C(=O)N(C6CCC(=O)NC6=O)C7=O)nn5)CC4)nc3)nc2N(C)C1=O (stereo not drawn) [DB0646, N-(3-(7-((6-(4-((1-(5-((2-(2,6-Dioxopiperidin-3-yl)-1,3-dioxoisoindolin-4-yl)oxy)pentyl)-1H-1,2,3-triazol-4-yl)methyl)piperazin-1-v)pyridin-3-yl)amino)-1-methyl-2-oxo-1,4-dihydropyrimido[4,5-d]pyrimidin-3(2H)-yl)-4-methylphenyl)-3-(trifluoromethyl)benzamide]",logFC FYN,[4]; [7],−0.4621
same,logFC FYN,"[4]; Accession P06241, experiment wp152",−0.3685
same,logFC FYN (P06241),"[4]; Experiment wp152, direction of change down",−0.3685
same,logFC,[4]; experiment wp105,−0.4621
same,logFC,"[5]; experiment wp160, 4 hr",−0.3396
same,logFC,"[5]; experiment wp160, 8 hr",−0.6548
same,logFC of EPHB6 (O15197-1),"[5]; experiment wp160, 4 hr",−0.3396
same,logFC of EPHB6 (O15197-1),"[5]; experiment wp160, 8 hr",−0.6548
Cc1ccc(NC(=O)c2cccc(C(F)(F)F)c2)cc1N1Cc2cnc(Nc3ccc(N4CCN(CCCOc5cccc6c5C(=O)N(C5CCC(=O)NC5=O)C6=O)CC4)nc3)nc2N(C)C1=O (stereo not drawn) [DB0662],logFC,[5]; experiment wp168,−0.736
same,logFC of EPHB6 (O15197-1),[5]; Experiment wp168,−0.736
CNC(=O)c1ccccc1Nc1cc(Nc2ccc(N3CCN(CCOCCOCCNC(=O)CNc4cccc5c4C(=O)N(C4CCC(=O)NC4=O)C5=O)CC3)cc2OC)ncc1C(F)(F)F (stereo not drawn) [MFH.5.103.1],logFC,[2]; experiment wp076,−0.6988
same,logFC of CDK10 (Q15131-1),[2]; experiment wp076,−0.6988
"Cc1ncsc1-c1ccc([C@H](C)NC(=O)[C@@H]2C[C@@H](O)CN2C(=O)[C@@H](NC(=O)CCCCCN2CCN(c3ccc(Nc4ncc5scc(-c6cccc(NS(C)(=O)=O)c6)c5n4)cc3)CC2)C(C)(C)C)cc1 [RSS0680, (2S,4R)-1-((S)-3,3-Dimethyl-2-(6-(4-(4-((7-(3-(methylsulfonamido)phenyl)thieno[3,2-d]pyrimidin-2-yl)amino)phenyl)piperazin-1-yl)hexanamido)butanoyl)-4-hydroxy-N—((S)-1-(4-(4-methylthiazol-5yl)phenyl)ethyl)pyrrolidine-2-carboxamide]",logFC,"[3]; MARK2 (Q7KZI7-1), experiment wp117, direction down",−0.4286
same,logFC,"[3]; MARK2 Q7KZI7-1, experiment wp117",−0.4286
Cc1ccc(C(=O)Nc2ccc(CN3CCN(CCCOCCOCCOCCNC(=O)COc4cccc5c4C(=O)N(C4CCC(=O)NC4=O)C5=O)CC3)c(C(F)(F)F)c2)cc1C#Cc1cnc2cccnn12 (stereo not drawn) [SB1.G.187],logFC,[1]; experiment wp056,−0.3691
same,logFC FYN,[4]; [7],−0.7697
same,logFC FYN,[4]; [8],−0.3601
same,logFC,[4]; experiment wp105,−0.7697
same,logFC,[4]; experiment wp107,−0.3601
same,logFC,[6]; experiment wp103,−0.3374
same,logFC,[6]; [9],−0.3374
Cn1c(=O)c(-c2c(Cl)cccc2Cl)cc2cnc(Nc3ccc(OCCNC(=O)CCCCCCNC(=O)COc4cccc5c4C(=O)N(C4CCC(=O)NC4=O)C5=O)cc3)nc21 (stereo not drawn) [SB1.G.192.1],logFC FYN,"[4]; Accession P06241-1, experiment wp081",−0.9314
same,logFC,[4]; experiment wp081,−0.9314
same,logFC,[5]; experiment wp071,−0.6259
same,logFC,[5]; experiment wp131,−0.5189
same,logFC of EPHB6 (O15197-1),[5]; experiment wp071,−0.6259
same,logFC of EPHB6 (O15197-1),[5]; experiment wp131,−0.5189
CC(C)S(=O)(=O)c1ccccc1Nc1nc(Nc2ccc(N3CCN(CCOCCNC(=O)CNc4cccc5c4C(=O)N(C4CCC(=O)NC4=O)C5=O)CC3)cc2)ncc1Cl (stereo not drawn) [SK.3.91],logFC FYN,[4]; [7],−0.3586
same,logFC FYN,[4]; [8],−0.4288
same,logFC,[4]; experiment wp105,−0.3586
same,logFC,[4]; experiment wp107,−0.4288
same,logFC,"[2]; experiment wp133, 4 hr",−0.544
same,logFC of CDK10 (Q15131-1),"[2]; experiment wp133, 4 hr",−0.544
same,logFC,"[3]; MARK2 (Q7KZI7-1), experiment wp107, direction down",−0.5266
same,logFC,"[3]; MARK2 (Q7KZI7-1), experiment wp172, direction down",−0.6351
same,logFC,"[3]; MARK2 Q7KZI7-1, experiment wp107",−0.5266
same,logFC,"[3]; MARK2 Q7KZI7-1, experiment wp172",−0.6351
CC(C)S(=O)(=O)c1ccccc1Nc1nc(Nc2ccc(N3CCN(CCOCCOCCNC(=O)CNc4cccc5c4C(=O)N(C4CCC(=O)NC4=O)C5=O)CC3)cc2)ncc1Cl (stereo not drawn) [TL12.186],logFC,[6]; experiment wp016,−0.3819
same,logFC,"[6]; experiment wp016, direction down",−0.3819
same,logFC,[2]; experiment wp131,−0.935
same,logFC of CDK10 (Q15131-1),[2]; experiment wp131,−0.935
CC(C)S(=O)(=O)c1ccccc1Nc1nc(Nc2ccc(N3CCN(CCOCCOCCC(=O)NCCNc4cccc5c4CN(C4CCC(=O)NC4=O)C5=O)CC3)cc2)ncc1Cl (stereo not drawn) [TL13.97],logFC,[6]; experiment wp137,−0.3477
same,logFC,"[6]; experiment wp137, direction down",−0.3477
Nc1ncc(-c2ccc(S(=O)(=O)N(CCCNC(=O)CCOCCOCCOCCOCCOCCNc3cccc4c3C(=O)N(C3CCC(=O)NC3=O)C4=O)C3CC3)cc2)cc1-c1ccc2c(c1)CCNC2=O (stereo not drawn) [WH.10417.099],logFC,[6]; experiment wp056,−0.4923
same,logFC,"[6]; experiment wp056, direction down",−0.4923
same,logFC,[6]; experiment wp103,−0.4751
same,logFC,[6]; [9],−0.4751
same,logFC,[6]; experiment wp107,−0.5661
same,logFC,"[6]; experiment wp107, direction down",−0.5661
